Values of other authors in patent US11051972B1 (priority 2020, dated 2021).
Like-named read-outs stand apart in the source and are kept apart here.

Key:
[1] = system: novel coronavirus (COVID-19); details: multi-center study in China, journal article [14, 20]

Row | Structure (SMILES) | % Excreted Unchanged or Active Metabolite in Urine (urine) [%] | % Excreted Unchanged or Active Metabolite in Urine (in vivo) [%] | effectiveness against the novel coronavirus (COVID-19) [1]
1 | CC(=O)N[C@H]1[C@H]([C@H](O)[C@H](O)CO)OC(C(=O)O)=C[C@@H]1N=C(N)N [Relenza] | 90 |  | 
2 | C[C@H]1COc2c(N3CCN(C)CC3)c(F)cc3c(=O)c(C(=O)O)cn1c23 [Levaquin] |  | 85 | 
3 | CCN(CC)CCCC(C)Nc1ccnc2cc(Cl)ccc12 (stereo not shown) [Chloroquine] |  | 70 | effective
4 | CCOC(=O)C1=C[C@@H](OC(CC)CC)[C@H](NC(C)=O)[C@@H](N)C1 [Tamiflu] | 90 |  | 
5 | CCC(CC)COC(=O)[C@H](C)N[P@](=O)(OC[C@H]1O[C@@](C#N)(c2ccc3c(N)ncnn23)[C@H](O)[C@@H]1O)Oc1ccccc1 [Remdesevir] | 60 |  | 
6 | CCC(CC)[C@H](NC(C)=O)[C@@H]1[C@H](O)[C@@H](C(=O)O)C[C@H]1N=C(N)N [Rapivab] | 90 |  | 
